Results published in patent US9481639B2, “Substituted tetracycline compounds for treatment of inflammatory skin disorders” (Paratek Pharmaceuticals, Inc., priority 2006, dated 2016).
≈ marks a conversion by molar mass, not a printed value. Read-outs that look alike come from different tables or passages of the source.

What was measured:
in vitro = format: cell-based
Method: Mammalian cell cytotoxicity was assessed to evaluate potential in vivo risks associated with the tetracycline compounds of the invention. A soluble, non-toxic redox dye (“Resazurin”; Alamar Blue) was used to assess a tetracycline compound's effect on cellular metabolism. At the onset of the experiment, cultures of mammalian COS-1 or CHO cells were washed, trypsinized, and harvested. […] On the next day, serial dilutions of test drug were prepared under sterile conditions and transferred to cell plates. Plates were then incubated under the above conditions for 24 hours. Following the incubation period, the media/drug was aspirated, and 50 μL of resazurin was added. Plates were then incubated under the above conditions for 2 hours and then in the dark at room temperature for an additional 30 minutes. Fluorescence measurements were taken (excitation 535 nm, emission 590 nm) and toxic effects in treated versus control cells were compared based on the degree of fluorescence in each well.

[1] = system: B. thetaiotaomicron ATCC 29741; test: Antibacterial MIC, CLSI broth microdilution; format: cell-based
Method: (§1) Gram (−) and gram (+) antibacterial minimum inhibitory concentration (MIC) values (μg/mL) were obtained using CLSI methodology for anti-bacterial susceptibility testing. On each day of testing, serial dilutions of compounds were prepared in microdilution plates using a Tecan robotic workstation. Mueller Hinton broth cultures of representative sensitive and resistant gram negative strains were grown or adjusted to match the turbidity of a 0.5 McFarland standard. 1:200 dilutions were made in an appropriate broth (cation supplemented Mueller Hinton broth) to allow a final inoculum of 1×10^5 cfu. Plates were incubated at 35° C. in ambient air for 18-24 hours, were read spectrophotometrically and checked manually for evidence of bacterial growth. The lowest dilution of compound that inhibited growth was recorded as the MIC. Lysed horse blood was used to supplement broth for testing S. pneumoniae. The MIC's for each compound were assessed against S. aureus, S. pneumoniae, P. acnes, E. coli and B. theta.

P. acnes ATCC 11827 = test: Antibacterial MIC, CLSI broth microdilution; format: cell-based; settings: Cutibacterium acnes, ATCC11827
Method: as §1

E. coli ATCC 25922 = test: Antibacterial MIC, CLSI broth microdilution; format: cell-based; settings: Escherichia coli, ATCC25922; 35° C., 18-24 hours
Method: as §1

[2] = system: S. pneumoniae 157E - Strep; test: Antibacterial MIC, CLSI broth microdilution; format: cell-based; settings: Streptococcus pneumoniae, 157ESTREP; broth supplemented with lysed horse blood
Method: as §1

E. coli MG. 1655 = test: Antibacterial MIC, CLSI broth microdilution; format: cell-based; settings: Escherichia coli, 35° C., 18-24 hours
Method: as §1

S. aureus RN450 [3] = test: Antibacterial MIC, CLSI broth microdilution; format: cell-based; settings: Staphylococcus aureus, 35° C., 18-24 hours
Method: as §1

P. acnes ATCC 6919 = test: Antibacterial MIC, CLSI broth microdilution; format: cell-based; settings: Cutibacterium acnes, ATCC6919
Method: as §1

S. aureus RN450 [4] = test: In vivo anti-bacterial activity, S. aureus lethal infection model; settings: Staphylococcus aureus, sc, mice; for ED50: lethal IP S. aureus RN450, subcutaneous, 24 hours, read-out: PD50 (dose that protects 50% of the animals)
Method: Groups of five mice were injected intraperitoneally with a lethal dose of S. aureus RN450 in a medium of mucin. Mice were evaluated at 24 hours to determine survival. […] In some instances, a dose response study was performed with the compound such that a PD50 (a dose of compound that protects 50% of the animals) could be calculated.

[5] = Bacteroides thetaiotaomicron, ATCC29741; read-out: MIC B. thetaiotaomicron ATCC 29741
[6] = Bacteroides thetaiotaomicron, ATCC29741, read-out: MIC B. thetaiotaomicron ATCC 29741

| SMILES | IC50 at 24 h (in vitro; African green monkey) [µg/mL] | IC50 at 24 h (in vitro; Chinese hamster) [µg/mL] | MIC [1, 5] [µg/mL] | MIC (P. acnes ATCC 11827) [µg/mL] | MIC (E. coli ATCC 25922) [µg/mL] | MIC [2] [µg/mL] | MIC (E. coli MG. 1655) [µg/mL] | MIC (S. aureus RN450 [3]) [µg/mL] | MIC (P. acnes ATCC 6919) [µg/mL] | MIC [1, 6] [µg/mL] | responders at 5 mg/kg (S. aureus RN450 [4]; lethal IP S. aureus RN450, single subcutaneous dose 5 mg/kg, survival at 24 hours, read-out: Percent Survival) [%] | ED50 (S. aureus RN450 [4]) [mg/kg] |
| --- | --- | --- | --- | --- | --- | --- | --- | --- | --- | --- | --- | --- |
| CON(C)Cc1ccc2c(c1O)C(=O)C1=C(O)[C@]3(O)C(=O)C(C(N)=O)=C(O)[C@@H](N(C)C)[C@@H]3C[C@@H]1C2 [Compound AP] | 35 to 75 (≈ 71.8 to 154 µM) | 35 to 75 (≈ 71.8 to 154 µM) | 4 to 8 (≈ 8.2 to 16.4 µM) |  |  |  |  |  |  |  |  |  |
| CN(C)CCC(=NOC(C)(C)C)c1ccc(O)c2c1C[C@H]1C[C@H]3[C@H](N(C)C)C(O)=C(C(N)=O)C(=O)[C@@]3(O)C(O)=C1C2=O [O] | 35 to 75 (≈ 59.9 to 128 µM) | < 35 | < 4 | < 4 | < 4 | < 4 | < 4 | < 4 | < 4 |  |  |  |
| CON(C)Cc1ccc(O)c2c1C[C@H]1C[C@H]3[C@H](N(C)C)C(O)=C(C(N)=O)C(=O)[C@@]3(O)C(O)=C1C2=O [Compound P] |  |  |  |  |  |  |  |  |  | 4 to 8 (≈ 8.2 to 16.4 µM) |  |  |
| CON(C)Cc1ccc(O)c2c1C[C@H]1C[C@H]3[C@@H](N(C)C)C(O)=C(C(N)=O)C(=O)[C@@]3(O)C(O)=C1C2=O [Y] |  |  |  |  |  |  |  |  |  | > 8 |  |  |
| CC(=NOC(C)(C)C)c1cc(N)c(O)c2c1C[C@H]1C[C@H]3[C@H](N(C)C)C(O)=C(C(N)=O)C(=O)[C@@]3(O)C(O)=C1C2=O [Compound Q, (4S,4aS,5aR,12aS)-9-Amino-7-(1-tert-butoxyimino-ethyl)-4-dimethylamino-3,10,12,12a-tetrahydroxy-1,11-dioxo-1,4,4a,5,5a,6,11,12a-octahydro-naphthacene-2-carboxylic acid amide] | < 35 | < 35 | 4 to 8 (≈ 7.37 to 14.7 µM) | < 4 | 4 to 8 (≈ 7.37 to 14.7 µM) | < 4 | 4 to 8 (≈ 7.37 to 14.7 µM) | < 4 | < 4 |  | 100 | 0.45 |
| CC(=NOC(C)(C)C)c1cc(N)c(O)c2c1C[C@H]1C[C@H]3[C@@H](N(C)C)C(O)=C(C(N)=O)C(=O)[C@@]3(O)C(O)=C1C2=O [R] | < 35 | < 35 | 4 to 8 (≈ 7.37 to 14.7 µM) | < 4 | > 8 | < 4 | > 8 | < 4 | < 4 |  |  |  |
| CN(C)[C@@H]1C(O)=C(C(N)=O)C(=O)[C@@]2(O)C(O)=C3C(=O)c4c(O)ccc(CN5CCCCO5)c4C[C@H]3C[C@@H]12 [AV] | 35 to 75 (≈ 68.2 to 146 µM) | 35 to 75 (≈ 68.2 to 146 µM) |  |  |  |  |  |  |  |  |  |  |
| CCON=C(C)c1cc(CNCC(C)(C)C)c(O)c2c1C[C@H]1C[C@H]3[C@H](N(C)C)C(O)=C(C(N)=O)C(=O)[C@@]3(O)C(O)=C1C2=O [Compound N, (4S,4aS,5aR,12aS)-4-Dimethylamino-9-[(2,2-dimethyl-propylamino)-methyl]-7-(1-ethoxyimino-ethyl)-3,10,12,12a-tetrahydroxy-1,11-dioxo-1,4,4a,5,5a,6,11,12a-octahydro-naphthacene-2-carboxylic acid amide] | > 75 | > 75 | < 4 | < 4 | < 4 | < 4 | 4 to 8 (≈ 6.68 to 13.4 µM) | < 4 | < 4 |  |  |  |
| CC(=NOCC(F)(F)F)c1cc(N)c(O)c2c1C[C@H]1C[C@H]3[C@H](N(C)C)C(O)=C(C(N)=O)C(=O)[C@@]3(O)C(O)=C1C2=O [Compound AW, (4S,4aS,5aR,12aS)-9-Amino-4-dimethylamino-3,10,12,12a-tetrahydroxy-1,1,1-dioxo-7-[1-(2,2,2-trifluoro-ethoxyimino)-ethyl]-1,4,4a,5,5a,6,11,12a-octahydro-naphthacene-2-carboxylic acid amide] |  |  | 4 to 8 (≈ 7.04 to 14.1 µM) | < 4 | 4 to 8 (≈ 7.04 to 14.1 µM) | < 4 | 4 to 8 (≈ 7.04 to 14.1 µM) | < 4 | < 4 |  |  |  |
| CCON=C(CCN(C)C)c1ccc(O)c2c1C[C@H]1C[C@H]3[C@@H](N(C)C)C(O)=C(C(N)=O)C(=O)[C@@]3(O)C(O)=C1C2=O [Compound I, (4R,4aS,5aR,12aS)-4-Dimethylamino-7-(3-dimethylamino-1-ethoxyimino-propyl)-3,10,12,12a-tetrahydroxy-1,11-dioxo-1,4,4a,5,5a,6,11,12a-octahydro-naphthacene-2-carboxylic acid amide] | > 75 | > 75 | 4 to 8 (≈ 7.19 to 14.4 µM) | < 4 | < 4 | < 4 | < 4 | < 4 | < 4 |  |  |  |
| CN(C)[C@@H]1C(O)=C(C(N)=O)C(=O)[C@@]2(O)C(O)=C3C(=O)c4cccc(-c5cnccn5)c4C[C@H]3C[C@@H]12 [Compound W, (4S,4aS,5aR,12aS)-4-Dimethylamino-3,12,12a-trihydroxy-1,11-dioxo-7-pyrazin-2-yl-1,4,4a,5,5a,6,11,12a-octahydro-naphthacene-2-carboxylic acid amide] | > 75 | > 75 | > 8 | < 4 | > 8 | < 4 | > 8 | < 4 | < 4 |  |  | 1.08 |
| CCON=C(C)c1cc(N)c(O)c2c1C[C@H]1C[C@H]3[C@H](N(C)C)C(O)=C(C(N)=O)C(=O)[C@@]3(O)C(O)=C1C2=O [M] | > 75 | > 75 | 4 to 8 (≈ 7.77 to 15.5 µM) | < 4 | < 4 | < 4 | 4 to 8 (≈ 7.77 to 15.5 µM) | < 4 | < 4 |  |  |  |

More lines, main results first:

| IC50 at 24 h (in vitro; African green monkey) [µg/mL] | IC50 at 24 h (in vitro; Chinese hamster) [µg/mL] | MIC [1, 5] [µg/mL] | MIC (P. acnes ATCC 11827) [µg/mL] | MIC (E. coli ATCC 25922) [µg/mL] | MIC [2] [µg/mL] | MIC (E. coli MG. 1655) [µg/mL] | MIC (S. aureus RN450 [3]) [µg/mL] | MIC (P. acnes ATCC 6919) [µg/mL] | SMILES | MIC [1, 6] [µg/mL] | responders at 5 mg/kg (S. aureus RN450 [4]; lethal IP S. aureus RN450, single subcutaneous dose 5 mg/kg, survival at 24 hours, read-out: Percent Survival) [%] | ED50 (S. aureus RN450 [4]) [mg/kg] |
| --- | --- | --- | --- | --- | --- | --- | --- | --- | --- | --- | --- | --- |
| < 35 | < 35 |  |  |  |  |  |  |  | COC(=O)CONCc1ccc(O)c2c1C[C@H]1C[C@H]3[C@H](N(C)C)C(O)=C(C(N)=O)C(=O)[C@@]3(O)C(O)=C1C2=O [AX] |  |  |  |
| > 75 | > 75 |  |  |  |  |  |  |  | CN(C)[C@@H]1C(O)=C(C(N)=O)C(=O)[C@@]2(O)C(O)=C3C(=O)c4c(O)ccc(CNOCCF)c4C[C@H]3C[C@@H]12 [Compound AO, (4S,4aS,5aR,12aS)-4-Dimethylamino-7-[(2-fluoro-ethoxyamino)-methyl]-3,10,12,12a-tetrahydroy-1,11-dioxo-1,4,4a,5,5a,6,11,12a-octahydro-naphthacene-2-carboxylic acid amide] |  |  |  |
| < 35 | < 35 |  |  |  |  |  |  |  | CN(C)[C@@H]1C(O)=C(C(N)=O)C(=O)[C@@]2(O)C(O)=C3C(=O)c4c(O)ccc(CNOCC(F)(F)F)c4C[C@H]3C[C@@H]12 [AT] |  |  |  |
| < 35 | 35 to 75 (≈ 66.9 to 143 µM) |  |  |  |  |  |  |  | CN(C)[C@@H]1C(O)=C(C(N)=O)C(=O)[C@@]2(O)C(O)=C3C(=O)c4c(O)ccc(CNOCC(F)F)c4C[C@H]3C[C@@H]12 [AR] |  |  |  |
| < 35 | < 35 |  |  |  |  |  |  |  | CC(C)ONCc1ccc(O)c2c1C[C@H]1C[C@H]3[C@H](N(C)C)C(O)=C(C(N)=O)C(=O)[C@@]3(O)C(O)=C1C2=O [Compound AN, (4S,4aS,5aR,12aS)-4-Dimethylamino-3,10,12,12a-tetrahydroxy-7-(isopropoxyamino-methyl)-1,11-dioxo-1,4,4a,5,5a,6,11,12a-octahydro-naphthacene-2-carboxylic acid amide] |  |  |  |
| < 35 | < 35 |  |  |  |  |  |  |  | CCONCc1ccc2c(c1O)C(=O)C1=C(O)[C@]3(O)C(=O)C(C(N)=O)=C(O)[C@@H](N(C)C)[C@@H]3C[C@@H]1C2 [AQ] |  |  |  |
| > 75 | > 75 |  |  |  |  |  |  |  | CN(C)[C@H]1C(O)=C(C(N)=O)C(=O)[C@@]2(O)C(O)=C3C(=O)c4c(O)ccc(CNOCC(F)F)c4C[C@H]3C[C@@H]12 [AS] |  |  |  |
| > 75 | > 75 |  |  |  |  |  |  |  | CN(C)[C@H]1C(O)=C(C(N)=O)C(=O)[C@@]2(O)C(O)=C3C(=O)c4c(O)ccc(CNOCC(F)(F)F)c4C[C@H]3C[C@@H]12 [AU] |  |  |  |
